Reference: US7612250B2, “Nuclear transfer embryo formation method” (Trustees of Tufts College, priority 2002, dated 2009)

How the values were obtained:
[1] = test system: B6D2F1 and CF-1 mouse oocytes; assay: Complete second polar body extrusion in ethanol-activated mouse oocytes treated with demecolcine; type: cell-based; details: demecolcine for only 15, 30 or 45 min, compared with continuous exposure; preliminary, unpublished
Method: (§1) Hybrid B6D2F1 (C57BL/6×DBA/2) and outbred CF-1 female mice, 8-12 weeks of age, were used as oocyte donors. […] Females were induced to superovulate by intraperitoneal injection of 5 1U of pregnant mare serum gonadotropin (PMSG, Calbiochem) followed 48 h later by 5 1U of human chorionic gonadotropin (hCG, Calbiochem). MII oocytes were collected from oviducts 16-17 h after hCG administration in Hepes-buffered KSOM (H-KSOM, Specialty Media). Cumulus cells were dispersed by incubation in 150 units/ml of bovine testicular hyaluronidase (Sigma) in H-KSOM at 37° C. for 5 min. Cumulus-free oocytes were then washed three times in fresh H-KSOM and immediately activated.
Oocytes were parthenogenetically activated by a 5-min exposure to freshly prepared 7% (v/v) ethanol in H-KSOM at 37° C. and then washed twice in H-KSOM. Removal of oocytes from ethanol was considered as time zero post-activation (p.a.). […]
(§2) A triple labeling protocol was used for the detection of microtubules, microfilaments and chromatin by fluorescence microscopy. […]
(§3) Labeled oocytes were examined using a Zeiss IM-35 inverted epi-fluorescence microscope fitted with filters selective for Hoechst, fluorescene and Texas Red and a 50 W mercury lamp. […]
(§4) Data were analyzed by x^2 test or Fisher's exact test. […]

bovine oocytes = assay: Induced enucleation (IE) of activated bovine oocytes by demecolcine; type: cell-based
[2] = test system: bovine oocytes / NT embryos; assay: In vitro development (7 days) of bovine NT embryos / parthenotes prepared with demecolcine; type: cell-based; details: for cleavage rate / morula/blastocyst rate: 7 days culture
Method: Progress has continued with experiments designed to compare in vitro development of control embryos (parthenotes) with that of reconstructed NT embryos prepared by conventional NT, telophase NT, IE and a novel simultaneous IE-NT paradigm (SIE/NT; see Table 1 below). As in all previous experiments, abattoir-sourced oocytes were obtained having been submitted to 26 h of maturation in ACM medi a @5%CO2 in air. Oocytes were denuded (enzyme/vortex) and activated (5 μM ionomyciin for 5 min, +/−CHX). See Example 2 for detail on methods. […] In the case of SIE/NT, donor karyoplasts (fibroblasts) were injected immediately prior to or immediately after activation. In vitro embryo development was evaluated over a period of 7 days.

[3] = test system: B6D2F1 and CF-1 mouse oocytes
Method: as §1
(§5) Oocytes were parthenogenetically activated by a 5-min exposure to freshly prepared 7% (v/v) ethanol in H-KSOM at 37° C. and then washed twice in H-KSOM. Removal of oocytes from ethanol was considered as time zero post-activation (p.a.). To monitor meiotic progression, activated control oocytes (EtOH groups) were cultured for up to 2 h and 15 min and fixed at 30 min intervals, starting 45 min p.a. Culture of activated oocytes was at 37° C. under 5% COZ in air in KSOM medium containing 1 mg/ml BSA and amino acids (16; Specialty Media).
(§6) Fixed oocytes were stored until processing at 4 C. in a PBS blocking solution containing 1% BSA, 0.2% powdered milk, 2% normal goat serum, 0.1 M glycine, 0.2% sodium azide and 0.01% Triton X-100.
A triple labeling protocol was used for the detection of microtubules, microfilaments and chromatin by fluorescence microscopy. Oocytes were first incubated for 1 h at 37° C. in a mixture of mouse monoclonal anti a-tubulin and anti (3-tubulin antibodies (Sigma) at a 1:1000 final dilution. After several washes in 0.1% polyvinylpyrrolidone (PVP)/PBS at room temperature, oocytes were incubated at 37° C. in PBS blocking solution for 30 min and then in a 1:150 dilution of a donkey antimouse fluorescein-conjugated IgG (Jackson ImmunoResearch) for 45 min at 37° C. Oocytes were washed again several times in 0.1% PVP/PBS and incubated at 37° C. for 30 min in 10 units/ml of Texas Red-conjugated phalloidin (Molecular Probes) to stain actin filaments. Finally, after extensive washing in 0.1% PVP/PBS, oocytes were incubated at room temperature for 15 min in 10 μLg/ml Hoechst 33258 (Molecular Probes) and mounted in 50% glycerol/PBS containing 25 mg/ml sodium azide.
Labeled oocytes were examined using a Zeiss IM-35 inverted epi-fluorescence microscope fitted with filters selective for Hoechst, fluorescene and Texas Red and a 50 W mercury lamp. Selected images were acquired using a Photometrics Cool Snap CCD camera (Roper Scientific Inc., Trenton, N.J.) running on Metamorph software (version 5.0, Universal Imaging Corp., Downington, Pa.).
Data were analyzed by x^2 test or Fisher's exact test. A probability value of P<0.05 was considered to be statistically significant.
In vivo ovulated mouse oocytes (B6D2F1, n-959; CF 1, n=999) and in vitro matured goat oocytes (n-163) were denuded activated (7% ethanol) and incubated for up to 3.5 hr in KSOM.

[4] = test system: B6D2F1 and CF-1 mouse oocytes; remark: listed apart in the source
Method: as §1, §5, §6, §2, §3, §4

[5] = IE group: fibroblast nuclei injected into IE cytoplasts 1.5-3 hpa
[6] = Induced Enucleation (IE): demecolcine 0.4 μg/ml 1.5-5 h p.a., nuclei injected 1.5-3 h p.a.
[7] = Simultaneous IE-NT (SIE/NT): karyoplasts injected immediately prior to or after activation
[8] = parthenogenetically activated and DM treated oocytes (control group)

Method for goat oocytes: This study was designed to characterize the kinetics and progressive phenotypes observed during induced enucleation (IE) of activated mouse and goat oocytes. In vivo ovulated mouse oocytes (B6D2F1, n-959; CF 1, n=999) and in vitro matured goat oocytes (n-163) were denuded activated (7% ethanol) and incubated for up to 3.5 hr in KSOM. […] At selected time points oocytes (n=11.50) were fixed/extracted and processed for immunofluorescence microscopy to document activation and meiotic progression based on spindle (microtubules), chromatin (H33258) and polar body (PB. microfilaments) phenotypes.

With CN[C@H]1CCc2cc(OC)c(OC)c(OC)c2-c2ccc(OC)c(=O)cc21 [demecolcine] the “rates of second PB extrusion after short exposure” value [1] was “slightly higher”, the “maximum rate of IE” value (bovine oocytes; DM 0.4 μg/ml between 1.5 and 5hpa, at 5hpa) was 91% and the IE rates (bovine oocytes; DM 0.4 μg/ml, varied onset and duration, at 5hpa) was 60-91%. The induced enucleation rate (bovine oocytes; bovine oocytes, about 5 hours post-activation) was “greater than 80%”, the “time required for induced enucleation” value (bovine oocytes; bovine oocytes, post-activation) was “about 5 hours” and the cleavage rate [2, 5] was 48%. The morula/blastocyst rate [2, 5] was 27%, the Blastocyst [2, 6] was 16% and the Cleavage [2, 6] was 49%. For the same compound, the Fragmented [2, 6] was 20%, the Morula [2, 6] was 17% and the Blastocyst [2, 7] was 25%. For the same compound, the Cleavage [2, 7] was 54%, the Fragmented [2, 7] was 18% and the cleavage rate [2, 8] was 49%. For the same compound, the morula/blastocyst rate [2, 8] was 30%, the “enucleation rates of oocytes that completed second PB extrusion” value ([3]; CF-1, four treatments (onset 0-15 min p.a.), all time-points combined) was ~80% and the “rates of oocyte enucleation after short exposure” value ([3]; demecolcine for only 15, 30 or 45 min, compared with continuous exposure, preliminary, unpublished) was “reduced”. The “maximum IE rates” value ([3]; mouse oocytes exposed to demecolcine immediately after activation, strain-dependent) was 23-100%, the “time required for induced enucleation” value ([3]; murine oocytes) was “about 1.5 hours” and the induced enucleation rate ([3]; murine oocytes, about 1.5 hours) was “greater than 50%”. For the same compound, the “oocytes showing complete spindle rotation” value ([4]; CF-1 and B6D2F1 treated oocytes, all treatments, 135 min p.a.) was 0-9.6%, the “oocytes in which spindle rotation is completed” value ([4]; demecolcine treated oocytes, both strains) was “less than 10%” and the “time after onset of treatment at which effect on the meiotic spindle was evident” value ([4]; smaller spindles, lower MT density than untreated activated oocytes) was 15 min. For the same compound, the “time required for induced enucleation” value (goat oocytes) was “about 5 hours” and the induced enucleation rate (goat oocytes; 5 hours) was “greater than 80%”.
